# Measured values taken from patent US20210121833A1, “Producing Homogeneous Metastable Solutions from Heterogeneous Non-condensed Solutes And Liquid Solvents” (priority 2019, published 2021).
# Assays:
# wounds and lesions = assay: Baths with oxygen saturated metastable solution, preliminary animal studies; type: in vivo; conditions: at least 30 mg/l concentration of oxygen
# [1] = cited from earlier work
structure (smiles),measurement,setting,value
O=O [oxygen],benefits of healing,wounds and lesions,Benefits of healing have been seen
same,fully saturated DO level,[1]; STP,38 mg/L
same,solubility limit of oxygen,"[1]; atmospheric conditions, partial pressure in air of 0.21 atm",less than 10 mg/l
